Results: article PMC4206519, “Lack of Renoprotective Effect of Chronic Intravenous Angiotensin-(1-7) or Angiotensin-(2-10) in a Rat Model of Focal Segmental Glomerulosclerosis” (PLoS ONE, 2014)
Read-outs that look alike come from different tables or passages of the source. Where no end group is shown, it is not given here.

Legend:
[1] = test system: kidney homogenates of uni-nephrectomized FHH rats; assay: Intrarenal Ang peptide content by parallel reaction monitoring (LC/MS/MS), late disease protocol; assay type: in vivo, rat; conditions: late disease model; for intrarenal level of the exogenously administered peptide (in words): kidneys harvested at sacrifice, chronic iv infusion 100-400 ng/kg/min, whole kidney homogenate, LC-MS/MS (PRM)
Experimental: Stable isotope labeled peptide standards (SIS, ^13C ^15N, New England Peptide, Gardner, MA) were resuspended in water to 1 nM and stored at −80C in Lo-Bind microcentrifuge tubes (Eppendorf) with the exception of Ang-I, which was resuspended in 30% acetonitrile and stored at 0.4 nM final concentration. Ang-(1-7), Ang-II, and Ang-(2-10) contained isotopically labeled valine. Ang-I contained isotopically labeled valine and proline. Peptide concentration was determined by amino acid analysis.
Tissues were stored frozen at −80°C in 15 ml Falcon tubes. Whole kidney tissues were submerged in liquid nitrogen for 5 minutes and kidney tissue was processed in a biopulverizer (MidSci, St. Louis, MO) to a fine powder. Pulverized tissue was transferred to a 5-ml glass dounce with a chilled spatula. Approximately 200 mg of tissue was used for peptide extraction. Four volumes of ice cold methanol (Burdick and Jackson, LC-MS Grade) were added to the tissue followed by a volume of water (Burdick and Jackson, LC-MS Grade) containing O-phenanthroline (Sigma Aldrich) and SIS peptides resulting in a final concentration of 1 mM and 1.8 nM, respectively. Tissue was homogenized in the dounce on ice for 1 minute. An aliquot of tissue homogenate was transferred to a 2-ml lo-bind microcentrifuge tube and stored at −20°C for at least 1 hour. Samples were further centrifuged for 10 minutes at 10,000×g at 4°C. An aliquot equal to approximately 60% of the total sample volume was transferred to a lo-bind tube equivalent to 100 mg of tissue (wet weight). From this aliquot, a volume equal to the wet weight of the starting tissue was transferred to a new lo-bind tube and diluted with ice cold water so that the final concentration of methanol was 40%. […] The filtrate volume was estimated by variable volume pipet and recorded to determine the fraction of starting volume collected. […] Declustering potential was set at 80 V. For parallel reaction monitoring (PRM) quantification, the dominant charge state of each peptide was determined and collision energies were optimized manually for SIS peptides (Table 1). […]

[2] = molecular target: T1, human AT2 receptor (Homo sapiens, UniProt P50052); assay: Ang peptide radioligand binding assay, displacement of [125I]-Ang-II (AT2R/HEK); conditions: competition with [125I]-Ang-II, HEK-293 cells stably transfected with human AT2 receptor, 90 min on ice, log-logit analysis; average of n studies
T1 construct: expressed in transfected cells
T1 sequence (P50052 1-363): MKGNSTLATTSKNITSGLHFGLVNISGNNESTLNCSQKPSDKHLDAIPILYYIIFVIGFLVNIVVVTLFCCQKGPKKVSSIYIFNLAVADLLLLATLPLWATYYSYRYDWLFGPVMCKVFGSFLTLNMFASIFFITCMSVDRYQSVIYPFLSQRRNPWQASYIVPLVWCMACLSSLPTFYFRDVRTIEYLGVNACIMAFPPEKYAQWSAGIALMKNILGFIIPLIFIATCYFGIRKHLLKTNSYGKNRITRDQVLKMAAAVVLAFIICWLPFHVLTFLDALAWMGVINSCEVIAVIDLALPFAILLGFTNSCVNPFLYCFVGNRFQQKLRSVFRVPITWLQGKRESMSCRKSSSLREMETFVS
Experimental: (§1) HEK-293 cells stably expressing AT1a receptor were maintained and characterized as previously described. HEK-293 cells expressing AT2 receptors were transfected with pcDNA3.1 plasmid containing human AT2 receptor DNA using Lipofectamine 2000 at 1 µg DNA/well of a six-well plate according to manufacturer's protocol (Invitrogen, Carlsbad, CA). Transfected cells were maintained in Minimal Essential Medium (MEM) containing 10% fetal bovine serum and 1% antibiotic/fungizone/antimycotic with addition of geneticin (400 µg/ml) for stable transfectants. Confluent monolayers cells were deprived of serum (0.1% bovine serum albumin) for 2–24 hours before assay. […] After 90 min of incubation on ice, cells were gently washed 3 times with ice cold 0.9% sodium chloride followed by solubilization of the cell monolayer with 0.1 N NaOH/0.1% SDS. The solubilized sample was placed into a gamma counter for determination of cell-associated radioactivity. Log-logit analysis of the obtained competition curves was performed for determination of IC50 values.

[3] = molecular target: T2, AT1a receptor (Rattus norvegicus, UniProt P25095); assay: Ang peptide radioligand binding assay, displacement of [125I]-Ang-II (AT1R/HEK); conditions: competition with [125I]-Ang-II, HEK-293 cells stably expressing AT1a receptor, 90 min on ice, log-logit analysis; average of n studies
T2 construct: expressed in transfected cells
T2 sequence (P25095 1-359): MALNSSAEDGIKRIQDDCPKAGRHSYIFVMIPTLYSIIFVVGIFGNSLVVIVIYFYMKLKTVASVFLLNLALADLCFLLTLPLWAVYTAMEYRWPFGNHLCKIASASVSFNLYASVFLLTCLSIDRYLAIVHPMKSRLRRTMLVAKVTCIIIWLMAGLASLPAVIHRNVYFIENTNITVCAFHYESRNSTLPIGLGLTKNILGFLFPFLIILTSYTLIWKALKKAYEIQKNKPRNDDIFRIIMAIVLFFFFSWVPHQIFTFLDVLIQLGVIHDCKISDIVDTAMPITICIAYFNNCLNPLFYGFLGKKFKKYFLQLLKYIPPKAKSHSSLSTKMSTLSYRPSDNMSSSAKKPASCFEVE
Experimental: as §1

[4] = test system: uni-nephrectomized fawn-hooded hypertensive (FHH) rats; conditions: late disease model; for systolic blood pressure at 6 weeks of treatment / systolic blood pressure after 12 weeks of treatment: tail-cuff, mean ± SEM, SEM; for systolic blood pressure at 6 weeks of treatment / degree of glomerulosclerosis (semiquantitative score 0-4): captopril 100 mg/kg/d or losartan 20 mg/kg/d orally; for systolic blood pressure at 6 weeks of treatment: vehicle 179±2; for systolic blood pressure after 12 weeks of treatment: captopril 100 mg/kg/d, losartan 20 mg/kg/d orally, low-dose Ang-(2-10) 100 ng/kg/min iv, vehicle 185±3; for degree of glomerulosclerosis (semiquantitative score 0-4): vehicle 2.29±0.9
Experimental: (§2) Male FHH rats (In-house colony established from animals obtained from Charles River Laboratories, Wilmington, MA) were housed at a certified animal facility at 22°C and a 12∶12 h light/dark cycle. […] All surgeries were performed under isoflurane anesthesia (5% induction, 2% maintenance), at 37°C, and perioperative buprenorphine.
(§3) Following anesthesia, an incision was made in the left flank; the kidney was exposed and excised after ligation of the pedicle. […] Under anesthesia, a mini-pump was placed in a subcutaneous pocket. […] Pumps were replaced once during the treatment period. For the early disease model, five groups of rats were examined. […] For the late disease model, eight groups of rats were examined. […] The dosages of the Ang peptides were selected based on previous studies where Ang-(1-7) was similarly administered using implanted osmotic mini-pumps, [16], [17], [26]. […] Systemic blood pressure was measured by tail-cuff sphygmomanometer (Natume, Japan). Animals were placed on metabolic cages for urine collection at pre-specified time points. Urinary protein excretion was measured by the method of Lowry. Urinary sodium concentration was measured by ion-selective electrodes. At sacrifice, kidneys were harvested for histological analysis and measurement of Ang peptide concentration.
(§4) Upon harvesting, kidneys were cleared of blood by transcardiac perfusion of iced-cold phosphate buffered saline, excised and fixed in 4% paraformaldehyde, embedded in paraffin and processed for microscopic examination. Kidney sections (2-µm) were stained with hematoxylin-eosin (H&E), Jones silver and Periodic Acid Schiff (PAS). Slides were reviewed by an experienced renal pathologist (S.S) in a blinded fashion. Index of glomerulosclerosis was evaluated by a semiquantitative score based on the percentage of the glomerular tuft occupied by sclerotic lesions (0: no lesions, 1: lesions affecting less than 25% of the glomerulus, 2-3-4: lesions affecting 25–50%, 50–75% and 75–100% of the glomerulus, respectively). Tubular injury was rated based on presence of tubular atrophy, microcystic tubular dilation and interstitial fibrosis, from 0 to 3 (0: none; 1: mild; 2: moderate; 3: severe).
(§5) Blood pressure data were analyzed by repeated measures ANOVA. Differences within groups were analyzed using paired t-tests adjusted with Bonferroni modification. Differences between group means at each time point were tested using one-way ANOVA followed by Tukey-Kramer post-hoc test. Urinary protein excretions were log10 transformed and tested using a two-way ANOVA for repeated measures followed by Scheffe post hoc test for differences between the groups. Untransformed 24-hour urinary protein excretions at each time point were then tested using Kruskal-Wallis test. If a significant main effect was detected then differences between groups were tested using the Mann-Whitney U test with the probability adjusted using the Bonferroni modification. Urine sodium was also assessed by two-way ANOVA for repeated measures and pairwise multiple comparisons were made using the Holm-Sidak method. Multiple comparisons of Ang peptide levels were made using ANOVA when data were normally distributed and with log10 transformation when non-normally distributed. Post-hoc pairwise comparisons were made using the Holm-Sidak method. […] For Ang peptide measurements by LC/MS/MS, only values above the LLOQ were utilized for statistical comparisons.

[5] = test system: uni-nephrectomized fawn-hooded hypertensive (FHH) rats; assay: Model of FSGS, early disease protocol (blood pressure, proteinuria, histology, weights, urine); assay type: in vivo, rat
Experimental: as §2, §3, §4, §5

Row | Compound | intrarenal level of the exogenously administered peptide (in words) [1] | IC50 [2] [nM] | IC50 [3] [nM] | systolic blood pressure at 6 weeks of treatment [4] [mmHg] | systolic blood pressure after 12 weeks of treatment [4] [mmHg] | degree of glomerulosclerosis (semiquantitative score 0-4) ([4]; week 30, after 12 weeks) | also measured
1 | RVYIHPFHL [Ang-(2-10)] | did not lead to a significant increase | 6.6 | 47.8 | – | – | – | demise of treated animals ([4]; 400 ng/kg/min iv): 7 out of the 9; number of rats that survived until the end of the study ([4]; high-dose 400 ng/kg/min iv, 12 weeks, n=9 treated): 2
2 | CC[C@H](C)[C@H](NC(=O)[C@H](Cc1ccc(O)cc1)NC(=O)[C@@H](NC(=O)[C@H](CCCNC(=N)N)NC(=O)[C@@H](N)CC(=O)O)C(C)C)C(=O)N[C@@H](Cc1c[nH]cn1)C(=O)N1CCC[C@H]1C(=O)O [Ang-(1-7)] | did not lead to a significant increase | 60.9 | 3790 | – | – | – | –
3 | C[C@H](CS)C(=O)N1CCC[C@H]1C(=O)O [Captopril, captopril] | – | – | – | 156±7 | 145±5 | 0.88±0.2 | kidney Ang-II levels compared with vehicle (in words) ([1]; after 12 weeks, captopril 100 mg/kg/d, Mann-Whitney U test p=0.002, n=5/group): lower; degree of glomerulosclerosis (semiquantitative score 0-4) ([5]; after 8 weeks, Ang-II 100 ng/kg/min iv, captopril 100 mg/kg/d, mean ± SEM, vehicle 0.4±0.1, SEM): 0.1±0.1; tubular injury score (0-3) ([5]; after 8 weeks, Ang-II 100 ng/kg/min iv, captopril 100 mg/kg/d, mean ± SEM, vehicle 0.8±0.2): non-significant reduction; urinary protein excretion (proteinuria), median (range), after 4 weeks ([5]; captopril 100 mg/kg/d, Lowry method, n=5, vehicle 89 (31–188), p=0.014 vs vehicle): 14 (13–17) mg/day; urinary protein excretion (proteinuria), median (range), after 8 weeks ([5]; captopril 100 mg/kg/d, Lowry method, n=5, vehicle 243 (91–402), p=0.014 vs vehicle): 30 (25–33) mg/day; systolic blood pressure after 4 weeks of therapy ([5]; tail-cuff, captopril 100 mg/kg/d in drinking water, n=5, mean ± SEM, vehicle 161±4, SEM): 117±5 mmHg; systolic blood pressure after 8 weeks of therapy ([5]; tail-cuff, captopril 100 mg/kg/d in drinking water, n=5, mean ± SEM, vehicle 162±4, SEM): 134±3 mmHg; progression of the degree of proteinuria between weeks 18 and 24 ([4]; captopril 100 mg/kg/d orally, vehicle +342±289, p=0.012): -225 ± 453 mg/day; tubular injury score (0-3) ([4]; week 30, after 12 weeks, captopril 100 mg/kg/d orally, printed as captopril vs. vehicle, p<0.05): 2.6±0.4
4 | CCCCc1nc(Cl)c(CO)n1Cc1ccc(-c2ccccc2-c2nn[nH]n2)cc1 [Losartan, losartan] | – | – | – | 155±5 | 146±5 | 1.28±0.7 | –
5 | CC[C@H](C)[C@H](NC(=O)[C@H](Cc1ccc(O)cc1)NC(=O)[C@@H](NC(=O)[C@H](CCCNC(=N)N)NC(=O)[C@@H](N)CC(=O)O)C(C)C)C(=O)N[C@@H](Cc1cnc[nH]1)C(=O)N1CCC[C@H]1C(=O)N[C@@H](Cc1ccccc1)C(=O)O [Ang-II, Angiotensin (Ang) II] | – | – | – | – | – | – | survival (in words) ([4]; Ang-II low-dose 100 ng/kg/min iv, time mark = 6 weeks of treatment): no rats in this group survived beyond that time mark
